Experimental data reported in patent US4837228A, “Antiinflammatory and antimicrobial compounds and compositions” (The University of Mississippi, priority 1982, dated 1989).
In brackets after ≈: the same amount, converted by molar mass. Several values for one entry are separate records, joined by “and”; a condition that tells them apart may be missing. Equal entries are not always repeated. Where two headings read alike, the source gives them in different places.

Tests used:
Type in all cases: cell-based
[1] = system: Trichophyton mentagrophytes; assay: MIC, two-fold (broth) serial dilution, T. mentagrophytes
Procedure: (§1) Both qualitative and quantitative screens were performed. Qualitative screening was accomplished using the agar well diffusion assay technque while quantitative screening was accomplished by the two-fold (broth) serial dilution method to determine the minimum inhibitory concentration (MIC). Innoculation was accomplished with one loop-full of a 1:10 dilution of the 24-hour-old broth culture, (fungal cultures and M.smegmatis more often required 48 to 72 hours of incubation) of the test organisms in sterile water. Streptomycin sulfate was used as a positive control for antibacterial activity while amphitericin B was used as an antifungal positive control. Organisms utilized in the screens included gram-positive, gram-negative, and acid-fast bacteria as well as different types of fungi. […] An intermediate type activity is seen where R is hydrogen. However, where R is lengthened up to C15 a decrease in activity was noted. Total saturation of the two double bonds in the compounds having a methyl side chain lead, in most cases, to an increase in both antifungal and antibacterial activity.

[2] = system: Trichophyton mentagrophytes; assay: agar well diffusion assay, T. mentagrophytes; details: for width of inhibition zone: from edge of agar well; for agar well diffusion result in words: one entry across 48 hr and 72 hr
Procedure: as §1

Candida albicans [3] = assay: MIC, two-fold (broth) serial dilution, C. albicans
Procedure: as §1

Aspergillus niger = assay: agar well diffusion assay, A. niger; details: from edge of agar well
Procedure: as §1

Saccharomyces cerevisiae [4] = assay: agar well diffusion assay, S. cerevisiae; details: from edge of agar well
Procedure: as §1

Candida albicans [5] = assay: agar well diffusion assay, C. albicans; details: from edge of agar well
Procedure: as §1

Bacillus subtilis [6] = assay: MIC, two-fold (broth) serial dilution, B. subtilis; details: Bacillus subtilis, read-out: MIC
Procedure: as §1

Saccharomyces cerevisiae [7] = assay: MIC, two-fold (broth) serial dilution, S. cerevisiae
Procedure: as §1

Mycobacterium smegmatis [8] = assay: agar well diffusion assay, M. smegmatis; details: from edge of agar well
Procedure: as §1

Pseudomonas aeruginosa = assay: agar well diffusion assay, Ps. aeruginosa; details: from edge of agar well
Procedure: as §1

[9] = system: erythrocyte (heat-induced hemolysis); assay: erythrocyte membrane stabilization assay (heat-induced erythrocyte hemolysis); details: Erythrocyte, 1 × 10^-4 M
Procedure: The published procedure (Proc. Soc. Exp. Biol. Med. 1967; 125; 837-842 Brow et al) for in vitro assay for antiinflammatory agents based on stabilization of erythrocytes was used. All compounds were prepared for administration by dissolving in physiologic saline or suspending in 2% ethanol in saline and the pH adjusted to 7.4 The concentrations tested in one series are given in Table 8. Aspirin (ASA) and phenylbutazone were used as positive controls for comparison of activity. Tests using this procedure were successfully and repeatedly using either 40% or 20% RBC suspensions.

Staphylococcus aureus [10] = assay: MIC, two-fold (broth) serial dilution, S. aureus; details: Staphylococcus aureus, read-out: MIC
Procedure: as §1

Staphylococcus aureus [11] = assay: agar well diffusion assay, S. aureus; details: from edge of agar well
Procedure: as §1

Mycobacterium smegmatis [12] = assay: MIC, two-fold (broth) serial dilution, M. smegmatis
Procedure: as §1

Escherichia coli = assay: agar well diffusion assay, E. coli; details: from edge of agar well
Procedure: as §1

Bacillus subtilis [13] = assay: agar well diffusion assay, B. subtilis; details: from edge of agar well
Procedure: as §1

[14] = Trichophyton mentagrophytes, 72 h, read-out: MIC
[15] = Trichophyton mentagrophytes, 48 h, read-out: MIC
[16] = Mycolicibacterium smegmatis, 24 h, read-out: MIC
[17] = Mycolicibacterium smegmatis, 48 h, read-out: MIC
[18] = 48 hr, listed as Iso CBC (VIII)
[19] = 72 hr, listed as Iso CBC (VIII)

| SMILES | MIC ([1]; 48 hr) | MIC ([1]; 72 hr) | MIC [1, 14] | width of inhibition zone ([2]; 48 hr) | width of inhibition zone ([2]; 72 hr) | agar well diffusion result in words [2] | MIC (Candida albicans [3]; 72 hr) | width of inhibition zone (Aspergillus niger; 48 hr) | width of inhibition zone (Saccharomyces cerevisiae [4]; 48 hr) | width of inhibition zone (Saccharomyces cerevisiae [4]; 72 hr) | width of inhibition zone (Candida albicans [5]; 48 hr) | MIC [1, 15] | width of inhibition zone (Mycobacterium smegmatis [8]; 24 hr) | width of inhibition zone (Mycobacterium smegmatis [8]; 48 hr) | width of inhibition zone (Pseudomonas aeruginosa; 24 hr) | width of inhibition zone (Candida albicans [5]; 72 hr) | MIC (Staphylococcus aureus [10]; 24 h) | MIC (Staphylococcus aureus [10]; 48 h) | width of inhibition zone (Staphylococcus aureus [11]; 24 hr) | width of inhibition zone (Staphylococcus aureus [11]; 48 hr) | further results |
| --- | --- | --- | --- | --- | --- | --- | --- | --- | --- | --- | --- | --- | --- | --- | --- | --- | --- | --- | --- | --- | --- |
| C[C@@H]1[C@H](O)[C@@H](C)/C=C/C=C/C=C/C=C/C=C/C=C/C=C/[C@H](O[C@@H]2O[C@H](C)[C@@H](O)[C@H](N)[C@@H]2O)C[C@@H]2O[C@](O)(C[C@@H](O)C[C@@H](O)[C@H](O)CC[C@@H](O)C[C@@H](O)CC(=O)O[C@H]1C)C[C@H](O)[C@H]2C(=O)O [Amphotericin B, reference compound] | 25.0 µg/mL (≈ 27.1 µM) | 25.0 µg/mL and 50 µg/mL | 25 µg/mL (≈ 27.1 µM) | 4. mm | 4. mm | No growth | 25 µg/mL (≈ 27.1 µM) | 4. mm and 2. mm | 7. mm | 8. mm and 5. mm | 7. mm and 5. mm | – | – | – | – | – | – | – | – | – | – |
| CC(C)=CCCC1(C)C=Cc2c(O)cccc2O1 (centres unmarked) [CBC (VI), 2-methyl-2-(4'-methyl-pent-3'-enyl)-5-hydroxychromene] | 25.0 µg/mL (≈ 102 µM) | 25.0 µg/mL (≈ 102 µM) | 25 µg/mL (≈ 102 µM) | 20. mm | 19. mm | – | 50.0 µg/mL (≈ 205 µM) | 9. mm | 10. mm | 8. mm | 7. mm | 25 µg/mL (≈ 102 µM) | 20. mm | 18. mm | 3. mm | 5. mm | 12.5 µg/mL (≈ 51.2 µM) | 12.5 µg/mL (≈ 51.2 µM) | 15. mm | 15. mm | MIC (Bacillus subtilis [6]; 24 h): 6.25 µg/mL (≈ 25.6 µM); MIC (Bacillus subtilis [6]; 48 h): 12.5 µg/mL (≈ 51.2 µM); MIC (Saccharomyces cerevisiae [7]; 48 hr): 25.0 µg/mL (≈ 102 µM); MIC (Saccharomyces cerevisiae [7]; 72 hr): 25.0 µg/mL (≈ 102 µM); MIC (Saccharomyces cerevisiae [7]; Saccharomyces cerevisiae, 48 h, read-out: MIC): 25 µg/mL (≈ 102 µM); MIC (Saccharomyces cerevisiae [7]; Saccharomyces cerevisiae, 72 h, read-out: MIC): 25 µg/mL (≈ 102 µM); MIC (Candida albicans [3]; 48 hr): 50.0 µg/mL (≈ 205 µM); MIC (Candida albicans [3]; Candida albicans, 48 h, read-out: MIC): 50 µg/mL (≈ 205 µM); MIC (Candida albicans [3]; Candida albicans, 72 h, read-out: MIC): 50 µg/mL (≈ 205 µM); width of inhibition zone (Aspergillus niger; 72 hr): 5. mm; inhibition at 100 µM ([9]; Table 8, read-out: inhibition of heat-induced erythrocyte hemolysis): 69%; MIC (Mycobacterium smegmatis [12]; [16]): 12.5 µg/mL (≈ 51.2 µM); MIC (Mycobacterium smegmatis [12]; [17]): 12.5 µg/mL (≈ 51.2 µM); width of inhibition zone (Escherichia coli; 24 hr): 3. mm; width of inhibition zone (Escherichia coli; 48 hr): 2. mm; width of inhibition zone (Bacillus subtilis [13]; 24 hr): 10. mm; width of inhibition zone (Bacillus subtilis [13]; 48 hr): 10. mm |
| CC(C)=CCCC1(C)C=Cc2ccc(O)cc2O1 (centres unmarked) [Iso CBC (VII), 2-methyl-2(4'-methyl-pent-3'-enyl)-7-hydroxychromene] | – | – | 6.25 µg/mL (≈ 25.6 µM) | – | – | No growth | – | 1. mm | 2. mm | 2. mm | 3. mm | 6.25 µg/mL (≈ 25.6 µM) | 6. mm | 4. mm | 4. mm | 2. mm | 12.5 µg/mL (≈ 51.2 µM) | 12.5 µg/mL (≈ 51.2 µM) | 10. mm | 10. mm | MIC (Candida albicans [3]; [18]): 12.5 µg/mL (≈ 51.2 µM); MIC (Candida albicans [3]; [19]): 25 µg/mL (≈ 102 µM); width of inhibition zone (Mycobacterium smegmatis [8]; 24 hr, listed as Iso CBC (VIII)): 5. mm; width of inhibition zone (Mycobacterium smegmatis [8]; [18]): 5. mm; width of inhibition zone (Pseudomonas aeruginosa; 48 hr): 4. mm; width of inhibition zone (Saccharomyces cerevisiae [4]; [18]): 4. mm; width of inhibition zone (Saccharomyces cerevisiae [4]; [19]): 4. mm; width of inhibition zone (Candida albicans [5]; [18]): 4. mm; width of inhibition zone (Candida albicans [5]; [19]): 5. mm; inhibition at 100 µM ([9]; read-out: inhibition of heat-induced erythrocyte hemolysis, Table 8): 43%; MIC (Mycobacterium smegmatis [12]; 24 hr): 12.5 µg/mL (≈ 51.2 µM); MIC (Mycobacterium smegmatis [12]; 48 hr): 12.5 µg/mL (≈ 51.2 µM); MIC (Mycobacterium smegmatis [12]; [16]): 25 µg/mL (≈ 102 µM); MIC (Mycobacterium smegmatis [12]; [17]): 25 µg/mL (≈ 102 µM); width of inhibition zone (Escherichia coli; 24 hr): 2. mm; width of inhibition zone (Escherichia coli; 48 hr): 2. mm; width of inhibition zone (Bacillus subtilis [13]; 24 hr): 10. mm; width of inhibition zone (Bacillus subtilis [13]; 48 hr): 7. mm |
